Data taken from US20250101028A1, “HETEROCYCLIC COMPOUNDS, COMPOSITIONS THEREOF, AND METHODS OF TREATMENT THEREWITH” (BeiGene, Ltd., priority 2022, published 2025).

biological target: T1, GST-tagged GDP-loaded KRAS G12V (amino acids 1-169) (Homo sapiens, UniProt P01116, G12V); assay: KRAS G12V probe displacement assay (TR-FRET); type: binding; conditions: displacement of biotinylated probe 2 from GDP-loaded KRAS G12V
T1 construct: GST-tagged GDP-loaded KRAS G12V (amino acids 1-169); made in house; host or cells: E. coli
Method: KRAS WT and KRAS G12V Probe Displacement Assay
This assay was used to identify compounds which bind to GDP-loaded KRAS protein and are able to displace a biotinylated probe occupying the KRAS binding site. GST-tagged GDP-loaded WT KRAS (amino acids 1-169) and GST-tagged GDP-loaded KRAS G12V (amino acids 1-169) were expressed in E. coli and purified in house. All protein and reaction solutions were prepared in assay buffer containing 50 mM HEPES pH7.5, 50 mM NaCl, 1 mM MgCl2, 1 mM TCEP, 0.01% BSA, and 0.008% Brij-35. Purified WT KRAS (3 nM final concentration) or KRAS G12V protein (2 nM final concentration) was incubated with a 3-fold serially diluted compound in the assay plate (384 well microplate, black, Corning). Plates are incubated at 24° C. for 1 hr. Following the incubation, biotinylated probe 1 (60 nM final assay concentration) for WT KRAS and biotinylated probe 2 (2.5 nM final assay concentration) for KRAS G12V was added to the assay plate, respectively. After 1 hr incubation at 24° C., Mab Anti-GST-Tb cryptate (Cisbio) and Streptavidin-XL665 (Cisbio) were added and further incubated at 24° C. for another 1 hr. The TR-FRET signals (ex337 nm, em665 nm/620 nm) were read on BMG PHERAstar FSX instrument. The inhibition percentage of KRAS protein binding with biotinylated probe in presence of increasing concentrations of compounds was calculated based on the ratio of fluorescence at 665 nm to that at 620 nm. The IC50 value of each compound was calculated from fitting the data to the four-parameter logistic model by Dotmatics.

T1 sequence (P01116 1-169 isoform P01116-2 G12V): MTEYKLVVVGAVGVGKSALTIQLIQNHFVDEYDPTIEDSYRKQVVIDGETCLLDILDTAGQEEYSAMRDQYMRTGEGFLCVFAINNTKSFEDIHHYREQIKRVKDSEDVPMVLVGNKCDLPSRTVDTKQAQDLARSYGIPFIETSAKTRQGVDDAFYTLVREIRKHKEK

`N#C[C@H]1C[C@@H](Nc2nc(OC[C@@]34CCCN3C[C@H](F)C4)nc3c(F)c(-c4ccc(F)c5sc(N)nc45)c(C(F)(F)F)cc23)C1` [Example 18, (cis)-3-((7-(2-amino-7-fluorobenzo[d]thiazol-4-yl)-8-fluoro-2-(((2R,7aS)-2-fluorotetrahydro-1H-pyrrolizin-7a(5H)-yl)methoxy)-6-(trifluoromethyl)quinazolin-4-yl)amino)cyclobutane-1-carbonitrile] and `N#C[C@H]1C[C@H](Nc2nc(OC[C@@]34CCCN3C[C@H](F)C4)nc3c(F)c(-c4ccc(F)c5sc(N)nc45)c(C(F)(F)F)cc23)C1` [Example 19, (trans)-3-((7-(2-amino-7-fluorobenzo[d]thiazol-4-yl)-8-fluoro-2-(((2R,7aS)-2-fluorotetrahydro-1H-pyrrolizin-7a(5H)-yl)methoxy)-6-(trifluoromethyl)quinazolin-4-yl)amino)cyclobutane-1-carbonitrile] are within 1.5-fold of each other in IC50: 13 nM for the first, 9.9 nM for the second.

First: Nc1nc2c(-c3c(C(F)(F)F)cc4c(N[C@H]5C[C@@H](CO)C5)nc(OC[C@@]56CCCN5C[C@H](F)C6)nc4c3F)ccc(F)c2s1 [Example 20, ((cis)-3-((7-(2-amino-7-fluorobenzo[d]thiazol-4-yl)-8-fluoro-2-(((2R,7aS)-2-fluorotetrahydro-1H-pyrrolizin-7a(5H)-yl)methoxy)-6-(trifluoromethyl)quinazolin-4-yl)amino)cyclobutyl)methanol]
Second: Nc1nc2c(-c3c(C(F)(F)F)cc4c(N[C@H]5C[C@H](CO)C5)nc(OC[C@@]56CCCN5C[C@H](F)C6)nc4c3F)ccc(F)c2s1 [Example 21, ((trans)-3-((7-(2-amino-7-fluorobenzo[d]thiazol-4-yl)-8-fluoro-2-(((2R,7aS)-2-fluorotetrahydro-1H-pyrrolizin-7a(5H)-yl)methoxy)-6-(trifluoromethyl)quinazolin-4-yl)amino)cyclobutyl)methanol]
The IC50 of the first is 1.9-fold higher: 7.9 nM for the first, 4.1 nM for the second.

Going from `Nc1nc2c(-c3c(C(F)(F)F)cc4c(NC5CC6(CCC6)C5)nc(OC[C@@]56CCCN5C[C@H](F)C6)nc4c3F)ccc(F)c2s1` [Example 22, 7-fluoro-4-(8-fluoro-2-(((2R,7aS)-2-fluorotetrahydro-1H-pyrrolizin-7a(5H)-yl)methoxy)-4-(spiro[3.3]heptan-2-ylamino)-6-(trifluoromethyl)quinazolin-7-yl)benzo[d]thiazol-2-amine] to `Nc1nc2c(-c3c(C(F)(F)F)cc4c(NC5CC6(COC6)C5)nc(OC[C@@]56CCCN5C[C@H](F)C6)nc4c3F)ccc(F)c2s1` [Example 23, 4-(4-((2-oxaspiro[3.3]heptan-6-yl)amino)-8-fluoro-2-(((2R,7aS)-2-fluorotetrahydro-1H-pyrrolizin-7a(5H)-yl)methoxy)-6-(trifluoromethyl)quinazolin-7-yl)-7-fluorobenzo[d]thiazol-2-amine], the IC50 falls from 367 nM to 23 nM (16-fold).

Going from `Nc1nc2c(-c3c(C(F)(F)F)cc4c(NC56CC(C5)C6)nc(OC[C@@]56CCCN5C[C@H](F)C6)nc4c3F)ccc(F)c2s1` [Example 24, 4-(4-(bicyclo [1.1.1]pentan-1-ylamino)-8-fluoro-2-(((2R,7aS)-2-fluorotetrahydro-1H-pyrrolizin-7a(5H)-yl)methoxy)-6-(trifluoromethyl)quinazolin-7-yl)-7-fluorobenzo[d]thiazol-2-amine] to `N#C[C@H]1CCC[C@H]1Nc1nc(OC[C@@]23CCCN2C[C@H](F)C3)nc2c(F)c(-c3ccc(F)c4sc(N)nc34)c(C(F)(F)F)cc12` [Example 26, (1S,2R)-2-((7-(2-amino-7-fluorobenzo[d]thiazol-4-yl)-8-fluoro-2-(((2R,7aS)-2-fluorotetrahydro-1H-pyrrolizin-7a(5H)-yl)methoxy)-6-(trifluoromethyl)quinazolin-4-yl)amino)cyclopentane-1-carbonitrile], the IC50 falls from 24 nM to 11 nM (2.2-fold). The second is the more potent here.
